The source of these data is patent publication US8653048B2 (Sanlugen Pharmatech Ltd., priority 2009, dated 2014).

Data set [1] concerns NCI-H460: a human lung cancer cell line. As to the kind of experiment: MTT analytical method, NCI-H460 cells. The class given is cell-based. The note with it: 72 h. An excerpt: (§1) MTT analytical method was used to test the prodrugs for various tumor cells.
(§2) • 1) Cell lines: NCI-H460, A549, LOVO, HT-29, MDA-MB-231, SGC7901, HepG2 or BEL-7402 cell lines. Culture: adherent culturing in D-MEM (Hyclone, Inc.) containing 10% fetal calf serum. The initial cell concentration was about 3×10^5 /mL. The cell was passaged by 1:3 dilution in every 2-3 days. On the day before the test, the cell was passaged by 1:2 dilution, the cell concentration for the test was 5-10×10^5 /mL. • 2) Dissolution and dilution of compounds: according to the weight and molecular weight of the drugs provided, 100-200 μL of DMSO was added. Then normal saline was added to make the final diluted concentration of the drugs be 5 mM (Note that the final concentration of DMSO should not be more than 10%). • 3) D-MEM or RPMI 1640 cell culture medium, Gibco, Inc. • 4) Fetal calf serum Hyclone, Inc. • 5) Cell dissociation buffer, 0.25% Trypsin+0.02% EDTA. • 6) MTT solution, MTT Powder (Sigma) were dissolved in PBS buffer solution to make a solution of 5 mg/mL. The solution was filtered by a 0.22 μm micropore membrane and stored at −20° C. • 7) PBS buffer solution. • 8) 10% acidified SDS, 0.01N HCl. • 9) Centrifuge tubes, haustorial tubes etc. (BD, Inc.); 96-well plates (Costatr, Inc.) Procedures: • 1) Cell inoculation: Cells grown for 24 hours after passage, which cells were in good growth state, were used. The cells were harvested by the routine method. The cell concentration was adjust with a fresh culture solution to 2×10^5/mL (for adherent cells)-3×10^5/mL (for suspension cells). The adherent cells were inoculated at 100 μL/well and then cultivated in an incubator with 5% CO2 at 37° C. for 24 h. Thereafter the used culture solution was removed and 95 μL/well of fresh culture solution was added. The suspension cells were inoculated at 95 μL/well directly. • 2) Drugs treatment: 9 concentration grades were designed for every drug, and every concentration had 3 wells. The control group had 5 wells. The control group was tested simultaneously in each test. The final concentrations of a drug added were […], and 5 μL normal saline was added to the control group. • 3) Cell culture and detection: the cells were cultured in an incubator with 5% CO2 at 37° C. for 72 h after the drug was added, then 10 μL MTT was added to each well and the culture was continued for 4 h. 100 μL of 10% SDS (containing 0.01N HCl) was added to each well. After 24 h, the absorbance (A) of each well was determined by Bio-rad 680 ELISA with the detection wavelength of 570 nm and the reference wavelength of 630 nm. Calculation:
(§3) First, the absorbance (A) of each well was averaged (removing any data with big difference). […] A0 was the mean absorbance of the control wells. The effect curve of the drug concentration was drawn using EXCEL software and the drug concentration for 50% cell survival was calculated according to an appropriate computing methods.

The test system of data set [2] is HT29: a human colon cancer cell line. As to the kind of experiment: MTT analytical method, HT29 cells. The class given is cell-based. The note with it: HT-29, 72 h.
Source text: as §1, §2, §3
(Tetrazolium assays rely on reduction of a dye to a coloured formazan, in cell work by metabolically active cells.)

The test system of data set [3] is LOVO: a human colon cancer cell line. Briefly: MTT analytical method, LOVO cells. The note with it: 72 h. Type of data set: cell-based.
Source text: as §1, §2, §3

Data set [4] has as its system Bel7402: a human liver cancer cell line. Briefly: MTT analytical method, Bel7402 cells. The note with it: Bel-7402, 72 h. The class given is cell-based.
Source text: as §1, §2, §3

Data set [5] concerns HepG2: a human liver cancer cell line. As to the kind of experiment: MTT analytical method, HepG2 cells. Type of data set: cell-based. The note with it: 72 h.
Source text: as §1, §2, §3

The test system of data set [6] is SGC7901: a human gastric cancer line. As to the kind of experiment: MTT analytical method, SGC7901 cells. Type of data set: cell-based. The note with it: SGC-7901, 72 h.
Source text: as §1, §2, §3

The subject of data set [7] is MDA-MB-231: a human breast cancer line. As to the kind of experiment: MTT analytical method, MDA-MB-231 cells. Type of data set: cell-based. The note with it: MDA-MB-231, MTT, 72 h.
Source text: as §1, §2, §3

Data set [8] concerns A549: a human lung cancer cell line. Briefly: MTT analytical method, A549 cells. The note with it: 72 h. Type of data set: cell-based.
Source text: as §1, §2, §3

The test system of the next data set is Hepatocellular Carcinoma. The note with it: patients, liver cancer treatment; cited from earlier work.

On to `CCCCCCCCCCCOC(=O)c1nccnc1C(=O)Nc1ccn([C@@H]2O[C@H](CO)[C@@H](O)C2(F)F)c(=O)n1` [Compound 5, Undecyl-3-((1-((2R,4R,5R)-3,3-difluoro-4-hydroxy-5-(hydroxymethyl)-tetrahydrofuran-2-yl)-2-oxo-1,2-dihydropyrimidin-4-yl)carbamoyl)pyrazine-2-carboxylate], for which the IC50 was less than 2 µM in data set [1]; 30 µM in data set [2]; 1 µM in data set [3]; 16 µM in data set [4]; 4 µM in data set [5]; greater than 16 µM in [6]. For the same compound, in [7], the IC50 was greater than 16 µM.
With `CCCCCCCCCCCCOC(=O)c1ccc(C(=O)Nc2ccn([C@@H]3O[C@H](CO)[C@@H](O)C3(F)F)c(=O)n2)nc1` [Compound 8, Dodecyl-6-((1-((2R,4R,5R)-3,3-difluoro-4-hydroxy-5-(hydroxymethyl)-tetrahydrofuran-2-yl)-2-oxo-1,2-dihydropyrimidin-4-yl)carbamoyl)nicotinate], the half-maximal inhibitory concentration (IC50) in data set [8] is 4 µM; in data set [1], less than 2 µM; in data set [2] it was 6 µM; in data set [3], 14 µM; in data set [4], 23 µM; in data set [5] it was 7 µM. The IC50 in data set [6] and in data set [7] was greater than 16 µM throughout.
Turning to `CCCCCCCCCCCCOC(=O)c1ccc(C(=O)Nc2ccn([C@@H]3O[C@H](CO)[C@@H](O)C3(F)F)c(=O)n2)cn1` [Compound 9, Dodecyl-5-((1-((2R,4R,5R)-3,3-difluoro-4-hydroxy-5-(hydroxymethyl)-tetrahydrofuran-2-yl)-2-oxo-1,2-dihydropyrimidin-4-yl)carbamoyl)picolinate], the IC50 was 4 µM in data set [8]; less than 2 µM in data set [1]; 3 µM in data set [2]; 5 µM in [3]; 13 µM in data set [4]; 6 µM in data set [5]. Besides, the IC50 in [6] and in [7] was greater than 16 µM in each case.
`CCCCCCCCCCCOC(=O)c1ncccc1C(=O)Nc1ccn([C@@H]2O[C@H](CO)[C@@H](O)C2(F)F)c(=O)n1` [Compound 15, Undecyl-3-((1-((2R,4R,5R)-3,3-difluoro-4-hydroxy-5-(hydroxymethyl)-tetrahydrofuran-2-yl)-2-oxo-1,2-dihydropyrimidin-4-yl)carbamoyl)picolinate]: the IC50 in [8] was 3 µM; in data set [1] it was less than 1 µM; in [2], less than 2 µM; in data set [3], 16 µM; in [4] it was 4 µM; in data set [5] it was 4 µM. In addition, the figures for the IC50 in data set [6] and in [7] were greater than 16 µM and 11 µM, respectively.
`CCCCCCCCCCCCOC(=O)c1ccc(C(=O)Nc2ccn([C@@H]3O[C@H](CO)[C@@H](O)C3(F)F)c(=O)n2)s1` [Compound 20, Dodecyl-5-((1-((2R,4R,5R)-3,3-difluoro-4-hydroxy-5-(hydroxymethyl)-tetrahydrofuran-2-yl)-2-oxo-1,2-dihydropyrimidin-4-yl)carbamoyl)thiophene-2-carboxylate]: the IC50 in data set [8] is 13 µM; in data set [2], 6 µM; in data set [4], 14 µM.
Regarding `CCCCCCCCCCCOC(=O)c1ccncc1C(=O)Nc1ccn([C@@H]2O[C@H](CO)[C@@H](O)C2(F)F)c(=O)n1` [Compound 22, Undecyl-3-((1-((2R,4R,5R)-3,3-difluoro-4-hydroxy-5-(hydroxymethyl)-tetrahydrofuran-2-yl)-2-oxo-1,2-dihydropyrimidin-4-yl)carbamoyl)isonicotinate], the IC50 in data set [8] turned out to be 8 µM; in data set [2], 30 µM; in data set [4] it was 16 µM.
Take `CCCCCCCCCCCCOC(=O)c1ccncc1C(=O)Nc1ccn([C@@H]2O[C@H](CO)[C@@H](O)C2(F)F)c(=O)n1` [Compound 24, Dodecyl-3-((1-((2R,4R,5R)-3,3-difluoro-4-hydroxy-5-(hydroxymethyl)-tetrahydrofuran-2-yl)-2-oxo-1,2-dihydropyrimidin-4-yl)carbamoyl)isonicotinate]: the figures for the IC50 in data set [8], in [2] and in [4] were 8 µM, 8 µM and 16 µM, respectively.
Turning to `CCCCCCCCCCCCOC(=O)c1ccnc(C(=O)Nc2ccn([C@@H]3O[C@H](CO)[C@@H](O)C3(F)F)c(=O)n2)c1` [Compound 26, Dodecyl-2-((1-((2R,4R,5R)-3,3-difluoro-4-hydroxy-5-(hydroxymethyl)-tetrahydrofuran-2-yl)-2-oxo-1,2-dihydropyrimidin-4-yl)carbamoyl)isonicotinate], the IC50 in data set [8] is 3 µM; in data set [1], less than 1 µM; in [2] it was 2 µM; in data set [3], 16 µM; in data set [4], 8 µM; in data set [5] it was 2 µM. In addition, the IC50 in data set [6] was greater than 16 µM; in [7], 6 µM.
`CCCCCCCCCCCCOC(=O)c1cc(C(=O)Nc2ccn([C@@H]3O[C@H](CO)[C@@H](O)C3(F)F)c(=O)n2)ccn1` [Compound 27, Dodecyl-4-((1-((2R,4R,5R)-3,3-difluoro-4-hydroxy-5-(hydroxymethyl)-tetrahydrofuran-2-yl)-2-oxo-1,2-dihydropyrimidin-4-yl)carbamoyl)picolinate]: the IC50 was 4 µM in data set [8]; less than 1 µM in data set [1]; less than 2 µM in data set [2]; 2 µM in [3]; 4 µM in data set [4]; 1 µM in data set [5]. Further, the IC50 in data set [6] is greater than 16 µM; in [7], less than 1 µM.
In the case of `CCCCCCCCCCCOC(=O)c1ccnc(C(=O)Nc2ccn([C@@H]3O[C@H](CO)[C@@H](O)C3(F)F)c(=O)n2)c1` [Compound 28, Undecyl-2-((1-((2R,4R,5R)-3,3-difluoro-4-hydroxy-5-(hydroxymethyl)-tetrahydrofuran-2-yl)-2-oxo-1,2-dihydropyrimidin-4-yl)carbamoyl)isonicotinate], the IC50 in [8] was determined as 8 µM; in [2], 2 µM; in [4], 8 µM.
Turning to `CCCCCCCCCCCOC(=O)c1cc(C(=O)Nc2ccn([C@@H]3O[C@H](CO)[C@@H](O)C3(F)F)c(=O)n2)ccn1` [Compound 29, Undecyl-4-((1-((2R,4R,5R)-3,3-difluoro-4-hydroxy-5-(hydroxymethyl)-tetrahydrofuran-2-yl)-2-oxo-1,2-dihydropyrimidin-4-yl)carbamoyl)picolinate], the IC50 is 3 µM in data set [8], less than 2 µM in [2] and 8 µM in data set [4].
In the case of `CCCCCCCCCCCOC(=O)c1cc(C(=O)Nc2ccn([C@@H]3O[C@H](CO)[C@@H](O)C3(F)F)c(=O)n2)[nH]n1` [Compound 30, Undecyl-5-((1-((2R,4R,5R)-3,3-difluoro-4-hydroxy-5-(hydroxymethyl)-tetrahydrofuran-2-yl)-2-oxo-1,2-dihydropyrimidin-4-yl)carbamoyl)-1H-pyrazole-3-carboxylate], the IC50 in [8] stood at 14 µM; in data set [2] it was 4 µM; in data set [4] it was 16 µM.
On to `CCCCCCCCCCCCOC(=O)c1cc(C(=O)Nc2ccn([C@@H]3O[C@H](CO)[C@@H](O)C3(F)F)c(=O)n2)[nH]n1` [Compound 31, Dodecyl-5-((1-((2R,4R,5R)-3,3-difluoro-4-hydroxy-5-(hydroxymethyl)-tetrahydrofuran-2-yl)-2-oxo-1,2-dihydropyrimidin-4-yl)carbamoyl)-1H-pyrazole-3-carboxylate], for which the results for the IC50 in [8], in data set [2] and in data set [4] were 21 µM, 7 µM and 30 µM, respectively.
Take `COc1cccc2c1C(=O)c1c(O)c3c(c(O)c1C2=O)C[C@@](O)(C(=O)CO)C[C@@H]3O[C@H]1C[C@H](N)[C@H](O)[C@H](C)O1` [Doxorubicin]: in the data set with Hepatocellular Carcinoma, the “fatal rate of complication” value is on record as roughly 25%.

In general, IC50 refers to the concentration that gives 50% inhibition. Lower therefore signals inhibition by little substance.
